Here are results for one compound from PMC11375794, “Discovery of new Hsp90–Cdc37 protein–protein interaction inhibitors: in silico screening and optimization of anticancer activity” (RSC Advances, 2024).

The test deals with T1, full-length Hsp90β (Homo sapiens, UniProt P08238).
T1 construct: For the protein expression of full-length Hsp90β, we received plasmids as a kind gift; made in house; host or cells: Escherichia coli strain Rosetta
The test is described as follows: Ligand-observed protein NMR (STD, trNOESY) with Hsp90β. Format: binding. Conditions: for STD amplification factor (AMP): Hsp90β : ligand 1 : 200. On the procedure:
High-resolution NMR spectra of 13g were recorded using a Bruker Avance Neo 600 MHz spectrometer with a cryoprobe at 25 °C. Data collection employed pulse sequences from the Bruker library, and analysis was conducted using Bruker Topspin 4.2.0. The residual water signal was suppressed by excitation sculpting[54] with a 5 ms selective pulse, and a T1ρ filter of 100 ms was used to remove background protein resonances. The ^1H spectral widths were set at 5263 Hz. NMR samples were prepared in a buffer containing 50 mM potassium phosphate (pD 7.5), 100 mM KCl in D2O, 5 mM MgSO4, 2 mM DTT-d10, 0.02% NaN3, and 2% DMSO-d6. Full proton assignment (see ESI Fig. S6 and Table S2 ^†) was achieved using TOCSY, NOESY, ROESY, and HSQC spectra. The ^1H STD spectra were recorded with a protein : ligand ratio of 1 : 200, with protein and ligand concentrations of […] and 3 mM.
For the ^1H STD ligand epitope mapping experiments,[55] 65 536 data points (6.23 s and acquisition time) were used, with a relaxation delay of 1.63 s and 5120 scans. A short protein saturation time of 0.5 s was utilized to minimize the effect of relaxation on the STD amplification factors.[56] Selective on-resonance saturation of Hsp90β was performed at −0.827 ppm, with the transmitter offset referenced to 4.70 ppm. Off-resonance irradiation for the reference spectrum was applied at 30 ppm. The spectra were zero-filled and apodized using an exponential line-broadening function of 3 Hz. Errors in the STD amplification factor were estimated using the specified formula:[57] [drawing 46] NSTD and NREF are noise levels in STD and reference spectra. ISTD and IREF are signal intensities in STD and reference spectra. The relative errors of the STD amplification factors (Tables S3 and S6 ^†) for all protons are below 4%.
The trNOESY[58] spectra were recorded with 4096 data points in t2, 64 scans, 360 complex points in t1, and a relaxation delay of 1.5 s. […] The spectra were apodized with a squared sine bell function shifted by π/2 in both dimensions. Distances for 13g were calculated from the cross-peak volumes, assuming the integrated intensity of proton pairs 2′, 4′ and 1′, 5′ in the para-substituted phenyl ring with a distance of 2.5 Å and that the distances of the protons in pyrimidine ring are the same.

T1 sequence (P08238 whole entry): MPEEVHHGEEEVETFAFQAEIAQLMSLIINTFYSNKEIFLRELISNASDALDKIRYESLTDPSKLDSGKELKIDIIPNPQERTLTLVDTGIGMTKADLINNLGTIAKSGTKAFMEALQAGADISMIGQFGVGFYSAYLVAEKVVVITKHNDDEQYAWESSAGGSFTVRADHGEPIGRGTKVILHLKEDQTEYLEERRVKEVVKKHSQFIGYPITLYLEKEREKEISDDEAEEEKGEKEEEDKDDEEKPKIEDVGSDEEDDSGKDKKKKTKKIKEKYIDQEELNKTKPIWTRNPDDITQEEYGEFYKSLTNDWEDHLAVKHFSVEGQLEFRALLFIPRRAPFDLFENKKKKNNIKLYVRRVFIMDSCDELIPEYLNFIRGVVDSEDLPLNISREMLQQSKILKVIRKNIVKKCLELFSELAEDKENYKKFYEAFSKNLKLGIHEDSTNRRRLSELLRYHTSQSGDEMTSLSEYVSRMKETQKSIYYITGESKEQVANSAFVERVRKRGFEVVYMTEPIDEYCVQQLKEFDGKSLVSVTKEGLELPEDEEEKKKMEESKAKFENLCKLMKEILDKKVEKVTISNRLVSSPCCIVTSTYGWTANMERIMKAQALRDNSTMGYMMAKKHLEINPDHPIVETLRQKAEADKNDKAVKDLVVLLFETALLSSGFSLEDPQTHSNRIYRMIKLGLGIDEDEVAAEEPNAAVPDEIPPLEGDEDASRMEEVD

Regarding `O=C(NCCOc1ccccc1)c1ccc(Nc2cc(N3CCNCC3)ncn2)cc1` [Compound 13g, N-(2-Phenoxyethyl)-4-((6-(piperazin-1-yl)pyrimidin-4-yl)amino)benzamide], the “binding to Hsp90β by transferred NOESY (trNOESY)” value (negative NOEs in the presence of Hsp90β) was “confirmed”. Also, the “STD amplification factor (AMP)” value (proton 1'') is 0.83; the “STD amplification factor (AMP)” value (proton 3'') is given as 4.88; the “STD amplification factor (AMP)” value (protons 1', 5') came to 1.75; the “STD amplification factor (AMP)” value (protons 1, 5) was determined as 2.18; the “STD amplification factor (AMP)” value (protons 2', 4') was determined as 1.78; the “STD amplification factor (AMP)” value (protons 2,3,4) came to 2.14.
